Results as given in US20250228861A1, “Cancer Treatments Using MTA-Cooperative PRMT5 Inhibitors” (AMGEN INC., priority 2022, published 2025).
Entries after “also recorded” stand apart in the source; their conditions may differ.

Tests used:
HCT116 MTAP-WT cells = test: 6-day CellTiter-Glo viability in MTAP-WT cells; format: cell-based; settings: Homo sapiens, HCT-116, 144 h, 6 days, read-out: proliferation, IC50
Description: FIG. 1. […] Viability was measured by CellTiter-Glo and cooperativity was determined as follows: Cooperativity=WT IC50/MTAP-null IC50.
Plated cells were at optimized cell density in 96-well black walled, clear bottom tissue culture plates in 90 μL of growth media. Cells were incubated at room temperature for 30 minutes prior to placing in incubator at 37° C. and 5% CO2 overnight. […] Secondary compound dilutions (1:100) in media were done in the 96-well V-Bottom plate by adding 3 μL of the primary dilution to 297 μL of culture media. Finally, 10 μL from the secondary compound dilutions were added to cells in triplicate (1:10 dilution; final DMSO concentration 0.1%). Once addition was complete, plates were incubated at 37° C. and 5% CO2. […] Percent of Control (POC) values were calculated as follows: POC=100*(Treatment/Vehicle). Mean POC values were then calculated for each treatment condition and used to fit dose response curves applying a four parameter logistic curve in GraphPad Prism 7.

A549 cells [1] = test: Combination with pemetrexed, CellTiter-Glo viability, Fa and CalcuSyn CI; settings: 6 days;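 note: fa derived from raw CellTiter-Glo luminescence, CI computed by CalcuSyn from drug concentrations and Fa, with values below 0.9 meaning synergism and 0.9–1.1 nearly additive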
Description: (§1) Cell viability was measured by the CellTiter-Glo Luminescence assay. Raw luminescent values were converted to fraction affected (Fa) with the following equation:
(§2) Synergy analysis was performed using the CalcuSyn software to determine CI scores based on the drug concentrations used and corresponding Fa values.

MTAP-null cells = test: In-vitro mechanism of action studies (DNA damage, cell cycle); format: cell-based; settings: data not shown
H292 cells [2] = test: Combination with pemetrexed, CellTiter-Glo viability, Fa and CalcuSyn CI; settings: 6 days;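 note: fa derived from CellTiter-Glo luminescence signal, CI calculated in CalcuSyn from doses and Fa, with 0.9–1.1 nearly additive and smaller values indicating synergism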
Description: as §1, §2

PSN1 cells [3] = test: Combination with irinotecan, CellTiter-Glo viability, Fa and CalcuSyn CI; format: cell-based; settings: 6 days
Description: as §1, §2

MIAPACA2T2 cells [4] = test: as above; format: cell-based; settings: 6 days
Description: as §1, §2

PSN1 cells [5] = test: Combination with gemcitabine, CellTiter-Glo viability, Fa and CalcuSyn CI; settings: 6 days
Description: as §1, §2

H292 NSCLC xenografts = test: H292 NSCLC xenografts, combination with chemotherapy; format: in vivo, mice
MIAPACA2T2 cells [6] = test: Combination with carboplatin, CellTiter-Glo viability, Fa and CalcuSyn CI; format: cell-based; settings: 6 days
Description: as §1, §2

MIAPACA2T2 cells [7] = test: Combination with gemcitabine, CellTiter-Glo viability, Fa and CalcuSyn CI; format: cell-based; settings: 6 days
Description: as §1, §2

A549 cells [8] = test: Combination with paclitaxel, CellTiter-Glo viability, Fa and CalcuSyn CI; format: cell-based; settings: 6 days;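 note: luminescent viability signal converted to fraction affected (Fa), and Fa with drug concentrations gives the CalcuSyn CI, where 0.9–1.1 is nearly additive and lower CI means stronger synergism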
Description: as §1, §2

H292 cells [9] = test: as above; format: cell-based; settings: 6 days
Description: as §1, §2

[10] = Compound B 0.1535 μM fixed + Pemetrexed 0.131687 μM
[11] = Compound B 0.1535 μM fixed + Pemetrexed 0.197531 μM
[12] = Compound B 0.1535 μM fixed + Pemetrexed 0.296296 μM
[13] = Compound B 0.1535 μM fixed + Pemetrexed 0.444444 μM
[14] = Compound B 0.1535 μM fixed + Pemetrexed 0.666667 μM
[15] = Compound B 0.1535 μM fixed + Pemetrexed 1 μM
[16] = Compound B 0.1535 μM fixed + Pemetrexed 1.5 μM
[17] = Compound B 0.022375 μM fixed + Gemcitabine 0.001461 μM
[18] = Compound B 0.022375 μM fixed + Gemcitabine 0.005612 μM
[19] = Compound B 0.2916 μM fixed + Gemcitabine 0.002045 μM
[20] = Compound B 0.1535 μM fixed + Paclitaxel 0.0005 μM
[21] = Compound B 0.1535 μM fixed + Paclitaxel 0.0007 μM
[22] = Compound B 0.1535 μM fixed + Paclitaxel 0.0009 μM
[23] = Compound B 0.1535 μM fixed + Paclitaxel 0.0011 μM
[24] = Compound B 0.1535 μM fixed + Paclitaxel 0.0015 μM
[25] = Compound B 0.1535 μM fixed + Paclitaxel 0.0019 μM
[26] = Compound B 0.1535 μM fixed + Paclitaxel 0.0025 μM
[27] = Compound B 0.2916 μM fixed + Paclitaxel 0.0005 μM
[28] = Compound B 0.2916 μM fixed + Paclitaxel 0.0007 μM
[29] = Compound B 0.2916 μM fixed + Paclitaxel 0.0009 μM
[30] = Compound B 0.2916 μM fixed + Paclitaxel 0.0011 μM
[31] = Compound B 0.2916 μM fixed + Paclitaxel 0.0015 μM
[32] = Compound B 0.2916 μM fixed + Paclitaxel 0.0019 μM
[33] = Compound B 0.2916 μM fixed + Paclitaxel 0.0025 μM

Cc1cc2cc(C(=O)N(Cc3ccc(C(F)(F)F)cn3)[C@@H](C)c3ncccn3)ccc2nc1N [Compound B]
IC50 (HCT116 MTAP-WT cells): 630 nM | Combination Fa (A549 cells [1]; Compound B 0.1535 μM fixed + Pemetrexed 0.087792 μM): 0.6401 | Combination Fa (A549 cells [1]; [10]): 0.6629 | Computed CI value (A549 cells [1]; [10]): 0.936 | Combination Fa (A549 cells [1]; [11]): 0.6484 | Computed CI value (A549 cells [1]; [11]): 1.172 | Combination Fa (A549 cells [1]; [12]): 0.6761 | Computed CI value (A549 cells [1]; [12]): 1.033 | Combination Fa (A549 cells [1]; [13]): 0.7384 | Computed CI value (A549 cells [1]; [13]): 0.639 | Combination Fa (A549 cells [1]; [14]): 0.8303 | Computed CI value (A549 cells [1]; [14]): 0.235 | Combination Fa (A549 cells [1]; [15]): 0.8717 | Computed CI value (A549 cells [1]; [15]): 0.139 | DNA damage (phosphorylation of H2AX) (MTAP-null cells): induced DNA damage, as illustrated by increased phosphorylation of H2AX | cell cycle (MTAP-null cells): an arrest in the G2/M phase of the cell cycle | Combination Fa (H292 cells [2]; [10]): 0.6769 | Computed CI value (H292 cells [2]; [10]): 0.73 | Combination Fa (H292 cells [2]; [11]): 0.7032 | Computed CI value (H292 cells [2]; [11]): 0.587 | Combination Fa (H292 cells [2]; [12]): 0.7484 | Computed CI value (H292 cells [2]; [12]): 0.401 | Combination Fa (H292 cells [2]; [13]): 0.7887 | Computed CI value (H292 cells [2]; [13]): 0.309 | Combination Fa (H292 cells [2]; [14]): 0.8438 | Computed CI value (H292 cells [2]; [14]): 0.215 | Combination Fa (H292 cells [2]; [15]): 0.8703 | Computed CI value (H292 cells [2]; [15]): 0.216 | Combination Fa (H292 cells [2]; [16]): 0.8508 | Computed CI value (H292 cells [2]; [16]): 0.385 | Computed CI value (PSN1 cells [3]; Compound B 0.0202 μM fixed + Irinotecan 0.088889 μM): 0.806 | Computed CI value (PSN1 cells [3]; Compound B 0.0202 μM fixed + Irinotecan 0.133333 μM): 0.8 | Computed CI value (PSN1 cells [3]; Compound B 0.0202 μM fixed + Irinotecan 0.2 μM): 0.8 | Computed CI value (MIAPACA2T2 cells [4]; Compound B 0.4374 μM fixed + Irinotecan 0.256 μM): 0.602 | Computed CI value (MIAPACA2T2 cells [4]; Compound B 0.4374 μM fixed + Irinotecan […]): 0.647 | Combination Fa (PSN1 cells [5]; [17]): 0.594 | Computed CI value (PSN1 cells [5]; [17]): 2.081 | Computed CI value (PSN1 cells [5]; Compound B 0.022375 μM fixed + Gemcitabine 0.002045 μM): 1.177 | Combination Fa (PSN1 cells [5]; [18]): 0.985 | Computed CI value (PSN1 cells [5]; [18]): 0.8 | Combination Fa (PSN1 cells [5]; Compound B 0.022375 μM fixed + Gemcitabine 0.007857 μM): 0.986 | Combination Fa (PSN1 cells [5]; Compound B 0.022375 μM fixed + Gemcitabine 0.011 μM): 0.989 | anti-tumor activity of combination with paclitaxel (H292 NSCLC xenografts; 100 mg/kg orally once daily + paclitaxel 20 mg/kg IP): significant anti-tumor activity versus either single agent alone; also recorded: significant anti-tumor activity versus paclitaxel or carboplatin alone | anti-tumor activity of combination with carboplatin (H292 NSCLC xenografts; orally once daily + carboplatin 60 mg/kg IP 1×/week): significant anti-tumor activity versus paclitaxel or carboplatin alone | Combination Fa (MIAPACA2T2 cells [6]; Compound B 0.4374 μM fixed + Carboplatin 2.47793 μM): 0.653 | Computed CI value (MIAPACA2T2 cells [6]; Compound B 0.4374 μM fixed + Carboplatin 11.1111 μM): 0.269 | Combination Fa (MIAPACA2T2 cells [7]; Compound B 0.2916 μM fixed + Gemcitabine 0.001461 μM): 0.567 | Combination Fa (MIAPACA2T2 cells [7]; [19]): 0.514 | Computed CI value (MIAPACA2T2 cells [7]; [19]): 1.006 | Computed CI value (MIAPACA2T2 cells [7]; Compound B 0.2916 μM fixed + Gemcitabine 0.002863 μM): 0.823 | Computed CI value (MIAPACA2T2 cells [7]; Compound B 0.2916 μM fixed + Gemcitabine 0.004009 μM): 0.866 | Computed CI value (MIAPACA2T2 cells [7]; Compound B 0.2916 μM fixed + Gemcitabine 0.005612 μM): 0.843 | Computed CI value (MIAPACA2T2 cells [7]; Compound B 0.2916 μM fixed + Gemcitabine 0.007857 μM): 0.895 | Computed CI value (MIAPACA2T2 cells [7]; Compound B 0.2916 μM fixed + Gemcitabine 0.011 μM): 1.007 | Combination Fa (A549 cells [8]; [20]): 0.7030 | Computed CI value (A549 cells [8]; [20]): 0.545 | Combination Fa (A549 cells [8]; [21]): 0.7177 | Computed CI value (A549 cells [8]; [21]): 0.64 | Combination Fa (A549 cells [8]; [22]): 0.7578 | Computed CI value (A549 cells [8]; [22]): 0.716 | Combination Fa (A549 cells [8]; [23]): 0.8365 | Computed CI value (A549 cells [8]; [23]): 0.745 | Combination Fa (A549 cells [8]; [24]): 0.9023 | Computed CI value (A549 cells [8]; [24]): 0.786 | Combination Fa (A549 cells [8]; [25]): 0.9387 | Computed CI value (A549 cells [8]; [25]): 0.867 | Combination Fa (A549 cells [8]; [26]): 0.9692 | Computed CI value (A549 cells [8]; [26]): 0.898 | Combination Fa (H292 cells [9]; [27]): 0.7127 | Computed CI value (H292 cells [9]; [27]): 0.84 | Combination Fa (H292 cells [9]; [28]): 0.7796 | Computed CI value (H292 cells [9]; [28]): 0.758 | Combination Fa (H292 cells [9]; [29]): 0.8302 | Computed CI value (H292 cells [9]; [29]): 0.757 | Combination Fa (H292 cells [9]; [30]): 0.8932 | Computed CI value (H292 cells [9]; [30]): 0.724 | Combination Fa (H292 cells [9]; [31]): 0.9425 | Computed CI value (H292 cells [9]; [31]): 0.697 | Combination Fa (H292 cells [9]; [32]): 0.9568 | Computed CI value (H292 cells [9]; [32]): 0.8 | Combination Fa (H292 cells [9]; [33]): 0.9674 | Computed CI value (H292 cells [9]; [33]): 0.928
